Reference: paper PMC8534150, “New Insights to Regulation of Fructose-1,6-bisphosphatase during Anoxia in Red-Eared Slider, Trachemys scripta elegans” (Biomolecules, 2021)

Key:
Assay in all cases: coupled phosphoglucoisomerase / glucose-6-phosphate dehydrogenase assay, NADP+ reduction at […] nm
Assay type in all cases: biochemical, Trachemys scripta elegans
[1] = target: T1, FBPase (control liver); settings: activation constant, activator, pH 7.2 imidazole, 5 mM MgSO4, 22 °C
T1 construct: gene FBP1; native, purified from liver of normoxic control turtles (phosphocellulose, CM cellulose); ~37 kDa on SDS-PAGE; band sent for mass spectrometry; tetramer in homology model

[2] = target: T2, FBPase (anoxic liver); settings: activation constant, activator, pH 7.2 imidazole, 5 mM MgSO4, 22 °C, enzyme from anoxic liver
T2 construct: gene FBP1; native, purified from liver of 20 h anoxic turtles

[3] = target: T1, FBPase (control liver); settings: inhibitor, allosteric, pH 7.2 imidazole, 5 mM MgSO4, 0.2 mM NADP+, 22 °C, FBP 0.1 mM as optimal assay
[4] = target: T2, FBPase (anoxic liver); settings: inhibitor, allosteric; pH 7.2 imidazole, 5 mM MgSO4, 0.2 mM NADP+, 22 °C; FBP 0.1 mM as optimal assay; enzyme from anoxic liver
[5] = test system: T2, FBPase (anoxic liver); settings: pH 7.2 imidazole, 5 mM MgSO4, 0.2 mM NADP+, 22 °C; paper states subsaturating FBP (0.24 µM); enzyme from anoxic liver
[6] = test system: T1, FBPase (control liver); settings: pH 7.2 imidazole, 5 mM MgSO4, 0.2 mM NADP+, 22 °C; paper states subsaturating FBP (0.24 µM)

SMILES: C[C@H](N)C(=O)O [Alanine]
- EC50 [1]: 2.85 ± 0.24 µM
- EC50 [2]: 3.3 ± 0.1 µM

SMILES: Nc1ncnc2c1ncn2[C@@H]1O[C@H](COP(=O)(O)O)[C@@H](O)[C@H]1O [AMP]
- IC50 [3]: 0.0061 ± 0.0001 mM
- IC50 [4]: 3.6 ± 0.3 µM

SMILES: C=C(OP(=O)(O)O)C(=O)O [PEP]
- EC50 [1]: 0.33 ± 0.09 µM
- EC50 [2]: 3.3 ± 0.2 µM

SMILES: O=P(O)(O)OC[C@H]1OC(O)(COP(=O)(O)O)[C@@H](O)[C@@H]1O (stereo partly drawn) [FBP]
- Km [5]: 59.8 ± 5.2 µM
- Km [6]: 26.9 ± 3 µM

SMILES: Nc1ncnc2c1ncn2[C@@H]1O[C@H](COP(=O)(O)OP(=O)(O)OP(=O)(O)O)[C@@H](O)[C@H]1O [ATP.Mg]
- EC50 ([1]; ATP.Mg 1:1): 144 ± 7 µM
- EC50 ([2]; ATP.Mg 1:1): 25 ± 0.9 µM

SMILES: Nc1ncnc2c1ncn2[C@@H]1O[C@H](COP(=O)(O)OP(=O)(O)O)[C@@H](O)[C@H]1O [ADP]
- IC50 ([3]; text b33 prints mM for this value, table µM): 0.0118 ± 0.0003 mM
- IC50 [4]: 8.3 ± 0.6 µM
